pKd: −log10 of the molar value. Converted amounts (≈) assume the structure as drawn. “And” between values parts separate entries of the source, which are not always exact repeats. Equal values may be shown once. Read-outs that look alike come from different tables or passages of the source.
Columns and labels:
[1] = Dissolution of solvent-cast protein films (Example 1); format: physicochemical; details: film cast from 5% solution in formic acid; 37° C., 0.1N HCl pH 1.5 for 90 minutes, then pH 6.8 up to 330 minutes
Protocol: In the following experiment 5% solutions of various proteins were dissolved in formic acid and solvent-casted into protein films. The proteins were selected from gelatin, BSA (albumin), pea, soy, whey and zein (corn). The protein films were then dissolved at 37° C. in 0.1N HCl with a pH of 1.5 for 90 minutes, after which the pH was adjusted to 6.8 over a time period up to 330 minutes.
The dissolution of the protein films was evaluated using spectrophotometry (absorbance at 280 nm), and plotted as a function of time.

[2] = Solubility statements in the description; format: physicochemical
[3] = Equilibrium solubility of Flubendazole in FaSSGF (RP-HPLC); format: physicochemical; details: FaSSGF (fasted state simulated gastric fluid), pH 1.6, fassgf or other biorelevant, thermodynamic from solid; FaSSGF (1.6 pH), excess Flubendazole rotated up to 72 hours; read-out: equilibrium solubility in FaSSGF medium
Protocol: The dissolution profile and supersaturation state (i.e., the available concentration) was tested using a dissolution media which simulates the juice present in the human stomach before (i.e. fasted state) eating food; namely FaSSGF (1.6 pH) available from Bio-relevant®. A suitable method for determining the concentration is Reversed phase High-performance liquid chromatography (RP-HPLC), which separates molecules based on hydrophobicity causing different retention times as they flow out the column. The further working principles of RP-HPLC are known in the art. The RP-HPLC set-up used an Eclipse Zorbax Agilent 5 μm (4.6×150 mm) column with a flow Rate of 1 ml/min. The injection volume was 20 μl with the mobile phase containing ACN/TFA 0.1% (55:45) and an elution time of Flubendazole about ±1.9 min. The wavelength for measurements was set at 280 nm.
Prior to the experiments, the solubility of Flubendazole in FaSSGF was determined to serve as the baseline reference value. The reference solution was prepared by bringing an excess of Flubendazole in 8 ml FaSSGF solution. This solution was rotated during 72 hours and a 1 ml sample was taken every 24 hours. These reference samples were filtered through a Polytetrafluoroethylene (PTFE) 0.45 μm filter to determine the concentration of Flubendazole through the tested RP-HPLC method. […]

BSA = target: T1, BSA (Bos taurus, UniProt P02769); experiment: Tryptophan quenching binding of Flubendazole to BSA; parameters: species or system bovine; details: read-out: dissociation constant Kd
T1 construct: from tissue; host or cells: bovine origin (tissue or fluid not specified)
T1 sequence (P02769 25-607): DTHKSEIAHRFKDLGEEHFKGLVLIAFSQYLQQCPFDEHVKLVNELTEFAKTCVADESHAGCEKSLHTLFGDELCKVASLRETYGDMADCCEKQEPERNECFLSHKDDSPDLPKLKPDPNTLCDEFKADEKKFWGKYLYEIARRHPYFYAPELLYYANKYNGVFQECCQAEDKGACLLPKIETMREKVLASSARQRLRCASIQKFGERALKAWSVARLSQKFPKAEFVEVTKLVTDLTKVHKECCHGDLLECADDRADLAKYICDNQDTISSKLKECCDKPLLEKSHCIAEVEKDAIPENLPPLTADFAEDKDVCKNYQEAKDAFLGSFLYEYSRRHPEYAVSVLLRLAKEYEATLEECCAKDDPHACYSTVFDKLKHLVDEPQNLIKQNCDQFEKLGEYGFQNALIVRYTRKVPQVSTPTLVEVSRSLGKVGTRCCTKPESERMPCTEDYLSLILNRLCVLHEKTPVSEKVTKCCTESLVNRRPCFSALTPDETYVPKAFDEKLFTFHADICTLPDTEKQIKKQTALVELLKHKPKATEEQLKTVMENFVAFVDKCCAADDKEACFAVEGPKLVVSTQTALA
From the text: For the following experiment the binding strength of a protein based excipient to a model API was verified. For the purposes of this experiment, BSA was the protein source, Flubendazole was used as the model API, formic acid served as the solvent and spray drying was chosen as the drying method.

For gelatin, the “dissolution level of protein film” value [1] was “(near) complete dissolution”.
In the case of Zein, the “dissolution level of protein film” value [1] was “about 10%”.
With CCCS(=O)(=O)Nc1ccc(F)c(C(=O)c2c[nH]c3ncc(-c4ccc(Cl)cc4)cc23)c1F [Vemurafenib] the solubility in methanol [2] was “does not dissolve”.
In the case of COC(=O)Nc1nc2cc(C(=O)c3ccc(F)cc3)ccc2[nH]1 [Flubendazole], the solubility thermodynamic at 72 h [3] was 11.2 µg/mL (≈ 35.7 µM), the pKd (BSA; pH 1.0) was 3.63 and ~3.63 and the pKd (BSA; pH 4.0) was 3.88 and ~3.88. For the same compound, the pKd (BSA; pH 7.0) was 3.94 and ~3.94.
